Patent US20110104064A1, “CYCLIZED NON-NATIVE SYNTHETIC PEPTIDE AND COMPLEX OF PEPTIDES COMPRISING SAID CYCLIZED PEPTIDE, INTENDED TO INDUCE AND TO CH[…] PREVENTION OR TREATMENT OF CONDITIONS IN MAMMALS” (priority 2008, published 2011)
Bridges are numbered along the chain shown (N, C = ends). Where no end group is shown, it is not given here.

Tests used:
Leishmania = test: Infection test in vaccinated dogs, parasitology from marrow punctures; format: in vivo; conditions: four months after the infection test
Description: The infection test consisted of intravenously injecting 10^8 complement-treated promastigotes in metacyclic phase from a healthy dog and 5×10^8 peritoneous macrophages from a healthy dog, infected in vitro by amastigotes.
The promastigotes and the infected macrophages were diluted in sterile physiological serum to a final volume of 1.5 mL. This mixture was made up just prior to injection.
A parasitological examination was carried out from samples taken directly from the dog.
A smear from the bone-marrow puncture was made on a slide. This smear, once fixed in methanol was May Grümwald Giemsa stained and studied under an immersion microscope (×1000).
Some bone-marrow samples were cultivated in a biphasic culture medium NNN (Novy and Mac Neal, 1904, 4. Infec. Dis., 1:1-30) of which RPMI 1640 added to 20% of decomplemented fetal veal serum made up the liquid phase. Random subculturing was carried out every 4 to 6 days. The cultures were regularly studied by photon microscope (×400) for 20 minutes.
The parasitemias were quantified as follows: • +/−: elongated, immobile, refringent forms • +: 1 to 5 mobile/field promastigote forms • ++: >5 mobile/field promastigote forms • +++: cultivated to confluence.
It was necessary to add to these analyses the study of Leishmania by direct observation under microscope and culture in NNN medium from the bone-marrow after the infection test. […]

monocytes = test: Leishmanicidal activity of monocytes (cell-mediated Th1 response); format: cell-based, dog; conditions: for immune response after vaccination (summary of Table I): dogs, 1 month after the 3rd injection, with adjuvant QA21
From the text: (§1) This evidence was gathered using two techniques: • Assaying the leishmanicidal activity of the monocytes according to the method described previously (Patent FRO1076060); • Detection of dog IgG2, specific to the cyclized peptide E34P and the carboxyterminal group of PSA.
(§2) Biological analysis consisted of: • Serology of specific IgG2 of cyclized peptide E34P and of the carboxyterminal group of PSA; • Leishmaniasis serology: quantitative immunofluorescence of the total IgG (sign of infection); • Leishmanicidal activity of the monocytes (cell-mediated response).

[1] = tested on: Leishmania promastigotes and amastigotes; test: Inhibition of parasitic growth by serums from vaccinated dogs; format: cell-based; conditions: in vitro
Description: Inhibition of the growth of promastigotes and amastigotes in the presence of IgG2 (Patent FR0209506).
The role of the IgG2 on the viability and growth of Leishmania promastigotes and amastigotes was analyzed with immunoserums from dogs vaccinated with the mixture including the cyclized peptide E34P and the serums from the placebo dogs.

cyclized peptide E34P = test: ELISA serology of dog IgG2 vs. cyclised E34P after vaccination; format: in vivo; conditions: non-cyclization at Cys9/Cys15
Description: as §1
This detection was carried out by the ELISA method according to the microtitration technique of Kweider et al. (J. Immunol, 1987, 138, 299) by using an anti IgG2 conjugate. For this method, the peptide is biotinylated before coating onto microplates. This bonding to […] biotin-type molecules has the effect of rendering the cyclized peptide E34P more antigenic. We also use the recombinant protein coding for the carboxyterminal group of the PSA as antigen.
Biological analyses were carried out: • Before any injection • 1 month after the 3rd injection.
as §2

| Substance | protection after the infection test (summary of Table II) (Leishmania) | immune response after vaccination (summary of Table I) (monocytes) | neutralizing / anti-parasitic role of the induced IgG2 [1] | IgG2 synthesis (cyclized peptide E34P) | Th1 stimulation (monocytes; peptide used alone or in combination with other peptides) |
| --- | --- | --- | --- | --- | --- |
| EDEHKGKYCRLGNDCRTTEPTTTATPRGTPTPAP (EDEHKGKYCRLGNDCRTTEPTTTATPRGTPTPAP; disulfide 9-15) [Group E34P] | insufficient to induce an effective response | only partial response | induces IgG2 immunoglobulins capable of neutralizing the proliferation | – | – |
| NON-cyclized peptide E34P: the non-cyclized form of peptide E34P (SEQ ID No. 1 without Cys9/Cys15 disulfide bridge) (EDEHKGKYCRLGNDCRTTEPTTTATPRGTPTPAP; non-cyclized, no disulfide; Fully-synthetic sequence) | – | less effective than the cyclized E34P | – | only induces slight IgG2 synthesis | only induces very partial Th1 stimulation |
